Laboratory results as given in PubChem BioAssay (NCI).
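The compound was tested at five concentrations on cells cultured in 96-well plates, with a 48-hour exposure period. At the TGI there is no net growth.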

Key:
Test in all cases: inhibition of tumour cell growth, NCI panel, 48 h
NCI/ADR-RES ovarian = test system: NCI/ADR-RES ovarian
UACC-62 melanoma = test system: UACC-62 melanoma
HT29 colon = test system: HT29 colon
MDA-MB-231 breast = test system: MDA-MB-231 breast
OVCAR-4 ovarian = test system: OVCAR-4 ovarian
OVCAR-5 ovarian = test system: OVCAR-5 ovarian
HL-60(TB) leukemia = test system: HL-60(TB) leukemia
MCF7 breast = test system: MCF7 breast
UACC-257 melanoma = test system: UACC-257 melanoma
CCRF-CEM leukemia = test system: CCRF-CEM leukemia
IGROV1 ovarian = test system: IGROV1 ovarian
MALME-3M melanoma = test system: MALME-3M melanoma

SMILES	TGI (NCI/ADR-RES ovarian)	TGI (UACC-62 melanoma)	TGI (HT29 colon)	TGI (MDA-MB-231 breast)	TGI (OVCAR-4 ovarian)	TGI (OVCAR-5 ovarian)	TGI (HL-60(TB) leukemia)	TGI (MCF7 breast)	TGI (UACC-257 melanoma)	TGI (CCRF-CEM leukemia)	TGI (IGROV1 ovarian)	TGI (MALME-3M melanoma)
Cc1cccc(NC(=S)N=Nc2c(O)[nH]c3ccccc23)c1	85.9 µM	> 100 µM	> 100 µM	> 100 µM	> 100 µM	> 100 µM	> 100 µM	> 100 µM	> 100 µM	> 100 µM	> 100 µM	> 100 µM
CN(C)c1ccc(/C=C/C=C(/C#N)c2ccccc2)cc1	35.3 µM	> 100 µM	40.6 µM	> 93.8 µM	> 65.8 µM	> 100 µM	33 µM	> 87.9 µM	> 100 µM	> 77.1 µM	> 100 µM	> 100 µM
CC(C)CCn1c(=O)c2c(=O)[nH][nH]c2c2ccccc21	> 100 µM		> 100 µM	> 100 µM	> 100 µM	> 100 µM	> 100 µM	> 100 µM	> 100 µM	> 100 µM	> 100 µM	> 100 µM
O[C@@H]1C[C@@H]2N[C@@](O)(C[C@@H]2O)[C@H]1O	> 100 µM	> 100 µM	> 100 µM	> 100 µM	> 100 µM	> 100 µM	> 100 µM	> 100 µM	> 100 µM	> 100 µM	> 100 µM	> 100 µM
C=C1C(=O)OC2C1CC(O)/C(C)=C\CCC1(C)OC21 (centres undefined)	62.3 µM	61.1 µM	> 100 µM	35.4 µM	> 100 µM	75 µM	83.8 µM	86.1 µM	> 100 µM	> 100 µM	> 100 µM	45.4 µM
Cc1ccc(N=C2C(=O)C3=C(OC(C)(C)CC3)c3ccccc32)cc1	1.75 µM	2.88 µM	1.15 µM	4.1 µM	2.18 µM	3.5 µM	3.21 µM	1.23 µM	1.72 µM	10.1 µM	2.03 µM	1.7 µM
C=CC[C@H](C)CCC(=O)N1[C@H]2CC3CC[C@@]2(CS1(=O)=O)C3(C)C	> 100 µM	> 100 µM	49 µM	> 100 µM	> 100 µM	> 100 µM	57.3 µM	> 100 µM	> 100 µM	59.2 µM	> 100 µM	> 100 µM
S=c1[nH]c(=S)c2cc(Sc3ccc4[nH]c(=S)[nH]c(=S)c4c3)ccc2[nH]1	> 100 µM	36.3 µM	> 100 µM	> 100 µM	49.7 µM	> 100 µM	62.8 µM	> 100 µM	> 100 µM	80.9 µM	86.8 µM	> 100 µM
Cc1ccc2c(n1)C(=O)c1ccccc1C2=O	60.1 µM	43.6 µM	> 87.9 µM	75.5 µM	55.4 µM	> 56.5 µM	45.7 µM	38.8 µM	37.9 µM	> 100 µM	73.4 µM	23.2 µM
CC(=O)Nc1ccc2c3c(cc(O)c2c1)N(C(=O)CCCCC(=O)Nc1ccc2c4c(cc(O)c2c1)N(C(=O)OC(C)(C)C)CC4CCl)CC3CCl (centres undefined)	> 79.7 µM	3.16 µM	> 37.9 µM	26.8 µM	> 24.3 µM	10.6 µM	12.4 µM	5.16 µM	5.16 µM	4.53 µM	> 32.8 µM	3.52 µM
C(=C\C(SCc1ccccc1)SCc1ccccc1)/c1ccccc1	> 10 µM	> 10 µM	> 10 µM	> 10 µM	> 10 µM		> 10 µM	> 10 µM	> 10 µM	> 10 µM	> 10 µM	> 10 µM
CC1C[C@]2(C)C(=O)N(c3ccccc3)C(=N)[C@@H]2N(C)c2ccccc21 (some centres undefined)	> 100 µM	> 100 µM	> 100 µM	> 100 µM	> 100 µM	> 100 µM	> 100 µM	> 100 µM	> 100 µM	> 100 µM	> 100 µM	> 100 µM
CC(=O)OCC1=C(C)C(OC(=O)C(OC(C)=O)[C@@H](NC(=O)c2ccccc2)c2ccccc2)CCC1(C)C (some centres undefined)	> 100 µM	> 100 µM	> 100 µM	> 100 µM	> 100 µM	> 100 µM	> 100 µM	> 100 µM	> 100 µM	> 100 µM	> 100 µM	> 100 µM
O=C(N/N=C\c1ccc2ccccc2c1)Nc1ccc([N+](=O)[O-])cc1	> 70.1 µM	> 74.8 µM	> 75.6 µM	> 100 µM	> 70.2 µM	62.9 µM	> 100 µM	> 100 µM	> 75 µM	> 100 µM	> 100 µM	> 70.9 µM
COCCOCCOC1=C(Cl)C(=O)c2c(O)ccc(O)c2C1=O	9.14 µM	7.85 µM	8.73 µM	4.12 µM	4.36 µM	22.6 µM	1.89 µM	4.62 µM	4.04 µM	45.1 µM	7.37 µM	3.34 µM
CC(C)C[P+](c1ccccc1)(c1ccccc1)c1ccccc1	> 100 µM	> 100 µM	> 100 µM	> 100 µM	> 100 µM	> 100 µM	24 µM	> 100 µM	4.19 µM	11.1 µM	> 100 µM	83.6 µM
CSC1=C(c2ccc(Cl)cc2)SC(N2CCCCC2)N1c1ccc([N+](=O)[O-])cc1 (centres undefined)	62.3 µM	> 100 µM	> 100 µM	77.1 µM	> 100 µM	65.9 µM	97.4 µM	> 100 µM	85.8 µM	> 100 µM	> 100 µM	> 100 µM
Cn1c2ccccc2c(=NNc2ccc(C(=O)O)cc2)c2ccccc21	57.9 µM	44.1 µM	32.3 µM	50.1 µM	49 µM	48 µM	48.6 µM	26.5 µM	57 µM	40.5 µM	95 µM	40.8 µM

SMILES	TGI (NCI/ADR-RES ovarian)	TGI (UACC-62 melanoma)	TGI (HT29 colon)	TGI (MDA-MB-231 breast)	TGI (OVCAR-4 ovarian)	TGI (OVCAR-5 ovarian)	TGI (HL-60(TB) leukemia)	TGI (MCF7 breast)	TGI (UACC-257 melanoma)	TGI (CCRF-CEM leukemia)	TGI (IGROV1 ovarian)	TGI (MALME-3M melanoma)
N#Cc1ccc(OCc2nc3cc(C(F)(F)F)ccc3nc2-c2ccccc2)cc1	> 100 µM	> 100 µM	> 100 µM	> 100 µM	> 100 µM	> 100 µM	> 100 µM	> 100 µM	> 100 µM	> 100 µM	> 100 µM	> 100 µM
CC12Cc3cc4c(cc3C1(c1ccc([N+](=O)[O-])cc1)OCCO2)OCO4 (centres undefined)	> 100 µM	> 100 µM	> 100 µM	42.3 µM	> 100 µM	> 100 µM	> 100 µM	> 100 µM	> 100 µM	> 100 µM	85.1 µM	> 100 µM
OC1COC(n2c3ccc(Br)cc3c3ccc4c5ccccc5[nH]c4c32)C(O)C1O (centres undefined)	19.1 µM	1.53 µM	11.4 µM	7.47 µM	> 46.2 µM	12.4 µM	8.75 µM	14.2 µM	19.9 µM	19.3 µM	8.21 µM	15.3 µM
O=S1C2=C(Cc3ccccc3)C(Cc3ccccc3)=C1CCc1cccc(c1)CC2	38.7 µM	24.7 µM	26 µM	31.3 µM	21.4 µM	35.5 µM	59.8 µM	25.7 µM	27.8 µM	> 100 µM		32.5 µM
COc1cccc(NC(=O)CC(=O)N2N=C(C)C(N=Nc3ccc(S(=O)(=O)c4ccc(N=NC5C(=O)N(C(=O)CC(=O)Nc6cccc(OC)c6)N=C5C)cc4)cc3)C2=O)c1 (centres undefined)	> 100 µM	> 100 µM	> 100 µM	> 100 µM	> 100 µM	> 100 µM	> 100 µM	> 100 µM	> 100 µM	> 100 µM	> 100 µM	> 100 µM
O=[N+]([O-])c1ccc2nc(/C=C(\O)c3ccc(F)cc3)c(/C=C(\O)c3ccc(F)cc3)nc2c1	> 100 µM	> 100 µM	> 100 µM	69.6 µM	> 100 µM	> 100 µM	55.7 µM	> 100 µM	> 100 µM	26.4 µM	> 100 µM	> 100 µM
COc1ccccc1N1CCN(Cn2c(=O)oc3cccnc32)CC1	> 100 µM		> 100 µM	> 100 µM	> 100 µM	> 100 µM	> 100 µM	> 100 µM	> 100 µM	> 100 µM	> 100 µM	> 100 µM
O=c1[nH]nc(Cc2ccccc2)n1Nc1ccccc1	> 100 µM	> 100 µM	> 100 µM	> 100 µM	> 100 µM	> 100 µM	> 100 µM	> 100 µM	> 100 µM	> 100 µM	> 100 µM	> 100 µM
CC(C)C1OC(=O)/C=C/C=C/C=C/C=C/C=C/CC(O)CC(O)CC(O)CC(O)CC(O)CC(O)CC(O)CC(O)/C=C/C1C (centres undefined)	> 100 µM		> 100 µM	> 100 µM	> 100 µM	> 100 µM	> 100 µM	> 100 µM	> 100 µM	> 100 µM	> 100 µM	> 100 µM
S=C1N=C(Cl)C2(NN1)c1ccccc1-c1ccccc12	> 10 µM	> 10 µM		> 10 µM	> 10 µM		> 10 µM	> 10 µM	> 10 µM	> 10 µM	> 10 µM	> 10 µM
Brc1ccc2[nH]cc(-c3nc(-c4c[nH]c5ccccc45)cs3)c2c1	11.2 µM	6.95 µM	3.56 µM	7.68 µM	23.1 µM	5.37 µM	16.1 µM	> 100 µM	15.4 µM	> 26.2 µM	8.75 µM	9.39 µM
CCCCOC(=O)C(O)Cc1ccoc1 (centres undefined)	> 100 µM	> 100 µM	> 100 µM	> 100 µM	> 100 µM	> 100 µM	> 100 µM	> 100 µM		> 100 µM	> 100 µM	> 100 µM
N#CC1(C#N)NC(c2ccsc2)C(C#N)(C#N)NC1c1ccsc1 (centres undefined)	> 100 µM	> 100 µM	> 100 µM	> 100 µM	> 100 µM	> 100 µM	> 100 µM	> 100 µM	> 100 µM	> 100 µM	> 100 µM	> 100 µM
COC(=O)/C=c1/c2ccccc2n2nc3ccccc3c12	> 100 µM	> 100 µM	> 100 µM	91.3 µM	> 100 µM	> 100 µM	> 100 µM	> 100 µM	> 100 µM	> 100 µM	> 100 µM	> 100 µM
CN(C)c1ccc(N=Nc2ccccn2)cc1	66.1 µM	> 100 µM	> 100 µM	> 100 µM	> 100 µM	> 100 µM	52.3 µM	14.6 µM	25.7 µM	91.2 µM	> 100 µM	> 100 µM
C#C[C@]1(O)CC[C@H]2[C@@H]3CCc4cc(OC(=O)c5cccc6cc7ccccc7nc56)ccc4[C@H]3CC[C@@]21C	> 100 µM	80.4 µM	> 100 µM	71.9 µM	> 100 µM	> 100 µM	> 100 µM	> 100 µM	> 100 µM	> 100 µM	> 100 µM	34.7 µM
COc1ccc(N=C(Nc2ccc(OC)cc2)C(=Nc2ccc(OC)cc2)Nc2ccc(OC)cc2)cc1	> 100 µM	> 100 µM	> 100 µM	> 100 µM	> 100 µM	> 100 µM	> 100 µM	> 100 µM	> 100 µM	> 100 µM	> 100 µM	> 100 µM
O=[N+]([O-])c1cccnc1NCC1(CO)CC(Cc2ccccc2)C1 (centres undefined)	> 100 µM	> 100 µM	> 100 µM	> 100 µM	> 100 µM	> 100 µM	> 100 µM	> 100 µM	> 100 µM	> 100 µM	> 100 µM	> 100 µM
